The IC50 is the concentration that inhibits the measured activity by half.

In one assay the test system is HCT116 MTAP null cells. Put plainly: HCT116 MTAP null cell proliferation / viability (CellTiter-Glo, 6 days). It is filed as cell-based. The settings on record: HCT116-MTAP null, 144 h, HCT116 MTAP null cells, 6 days, CellTiter-Glo; read-out: HCT-116 MTAP null IC50. In short, it runs like this:
(§1)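 CellTiter-Glo luminescence, 6-day exposure, RPMI 1640 + 10% FBS. Dosing: 1:3 series (8-9 pts, top 1 or 10 μM) or 1:2 series (22 pts, top 10 or 50 μM), DMSO control. IC50 = 50% of control via curve fit.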
Background: ATP-based viability assays read luminescence as a measure of living cells.

The test system of a further assay is HCT116 WT cells. Description: HCT116 WT cell proliferation / viability (CellTiter-Glo, 6 days). The following applies: Homo sapiens, HCT-116, 144 h, HCT116 WT cells, 6 days, CellTiter-Glo; read-out: HCT-116 WT IC50. In kind it is cell-based. Summed up:
as §1

Turning to `CC1OCc2c1c(N)nc1ccc(C(=O)N(Cc3ccc(C(F)(F)F)cn3)[C@H](C)c3ncccn3)cc21` (stereo partly drawn) [Example 911, 4-amino-3-methyl-N-((R)-1-(pyrimidin-2-yl)ethyl)-N-((5-(trifluoromethyl)pyridin-2-yl)methyl)-1,3-dihydrofuro[3,4-c]quinoline-8-carboxamide], the concentration for half-maximal inhibition (IC50) worked out at 0.021 µM in the assay with HCT116 MTAP null cells and 0.173 µM in the assay on HCT116 WT cells.
For `C[C@@H](c1ccc(C(F)(F)F)cn1)N(C)C(=O)c1ccc2nc(N)c3cnn(C)c3c2c1` (single isomer, unassigned) [Example 601] the same measures were 0.997 µM and 21.2 µM.
Turning to `CCOc1ccc(CN(CC(C)C)C(=O)c2cc3c4c(c(N)nc3cn2)COC4)nn1` [Example 672, 4-amino-N-((6-ethoxy-3-pyridazinyl)methyl)-N-(2-methylpropyl)-1,3-dihydrofuro[3,4-c][1,7]naphthyridine-8-carboxamide], the results for the IC50 with HCT116 MTAP null cells and with HCT116 WT cells were 0.145 µM and 7.46 µM, respectively.
In the case of `Cn1cc(N(Cc2ccc(C(F)(F)F)cc2)C(=O)c2cc3c4c(c(N)nc3cn2)COC4)cn1` [Example 882, 4-amino-N-(1-methyl-1H-pyrazol-4-yl)-N-(4-(trifluoromethyl)benzyl)-1,3-dihydrofuro[3,4-c][1,7]naphthyridine-8-carboxamide 2,2,2-trifluoroacetate], the IC50 in the assay on HCT116 MTAP null cells stood at 0.062 µM; with HCT116 WT cells, 1.34 µM.
As for `CN(Cc1ccc(Cl)cn1)C(=O)c1ccc2nc(N)c3c(c2c1)COC3` [Example 702, 4-amino-N-((5-chloro-2-pyridinyl)methyl)-N-methyl-1,3-dihydrofuro[3,4-c]quinoline-8-carboxamide], the IC50 with HCT116 MTAP null cells turned out to be 0.47 µM; in the assay on HCT116 WT cells, 4.12 µM.
`C[C@H](c1ncc(C(F)(F)F)cc1F)N(C)C(=O)c1cc2c(cc1F)nc(N)c1c2cnn1C` (single isomer, unassigned) [Example 865]: the IC50 in the assay with HCT116 MTAP null cells is 0.059 µM; in the assay with HCT116 WT cells, 2.81 µM.
For the compound `CC1(CN(Cc2ccc(C(F)(F)F)cn2)C(=O)c2cc3c4c(c(N)nc3cn2)COC4)CC1` [Example 398, 4-amino-N-((1-methylcyclopropyl)methyl)-N-((5-(trifluoromethyl)-2-pyridinyl)methyl)-1,3-dihydrofuro[3,4-c][1,7]naphthyridine-8-carboxamide], the half-inhibitory concentration (IC50) with HCT116 MTAP null cells was determined as 0.049 µM; in the assay on HCT116 WT cells it was 1.39 µM.
For the compound `CC(C)CN(Cc1ccc(C(F)(F)F)cn1)C(=O)c1ccc2nc(N)c3c(c2c1)COC3` [Example 613, 4-amino-N-(2-methylpropyl)-N-((5-(trifluoromethyl)-2-pyridinyl)methyl)-1,3-dihydrofuro[3,4-c]quinoline-8-carboxamide], the half-maximal inhibitory concentration (IC50) in the assay with HCT116 MTAP null cells came out at 0.023 µM; in the assay with HCT116 WT cells, 0.761 µM.
`C[C@@H](c1ccc(C(F)(F)F)cn1)N(C(=O)c1ccc2nc(N)c3c(c2c1)COC3)C1CC1` [Example 735, 4-amino-N-cyclopropyl-N-((1S)-1-(5-(trifluoromethyl)-2-pyridinyl)ethyl)-1,3-dihydrofuro[3,4-c]quinoline-8-carboxamide]: the IC50 in the assay with HCT116 MTAP null cells came to 5.5 µM; in the assay with HCT116 WT cells, 36.2 µM.
On to `Nc1nc2ccc(C(=O)N(Cc3ccc(C(F)(F)F)cn3)C3CC3)cc2c2c1COC2` [Example 443, 4-amino-N-cyclopropyl-N-((5-(trifluoromethyl)-2-pyridinyl)methyl)-1,3-dihydrofuro[3,4-c]quinoline-8-carboxamide], for which the values for the IC50 in the assay with HCT116 MTAP null cells and in the assay on HCT116 WT cells were 0.127 µM and 7.21 µM, respectively.
In the case of `CN(Cc1ccc(C(F)(F)C(F)(F)F)cc1)C(=O)c1ccc2nc(N)c3cnn(C)c3c2c1` [Example 561, 4-amino-N,1-dimethyl-N-(4-(pentafluoroethyl)benzyl)-1H-pyrazolo[4,3-c]quinoline-8-carboxamide], the figures for the IC50 with HCT116 MTAP null cells and with HCT116 WT cells were 0.089 µM and 5.33 µM, respectively.
For `COC[C@H](C1CC1)N(Cc1ccc(N2CCOCC2)nn1)C(=O)c1ccc2nc(N)c3c(c2c1)COC3` [Example 641, 4-amino-N-((1S)-1-cyclopropyl-2-methoxyethyl)-N-((6-(4-morpholinyl)-3-pyridazinyl)methyl)-1,3-dihydrofuro[3,4-c]quinoline-8-carboxamide] the same measures were 0.016 µM and 0.242 µM.
Consider `CCN(Cc1ccc(C2CC2)cn1)C(=O)c1ccc2nc(N)c3c(c2c1)CO[C@@H]3C` [Example 542, (3R)-4-amino-N-((5-cyclopropyl-2-pyridinyl)methyl)-N-ethyl-3-methyl-1,3-dihydrofuro[3,4-c]quinoline-8-carboxamide], for which the IC50 is 0.035 µM in the assay on HCT116 MTAP null cells and 1.54 µM with HCT116 WT cells.
The corresponding values for `CC(C)CN(Cc1ccc(Br)nn1)C(=O)c1ccc2nc(N)c3c(c2c1)COC3` [Example 665, 4-amino-N-((6-bromo-3-pyridazinyl)methyl)-N-(2-methylpropyl)-1,3-dihydrofuro[3,4-c]quinoline-8-carboxamide] are 0.037 µM and 1.25 µM.
On to `C[C@H](c1ncn(C)n1)N(Cc1ccc(C(F)F)cn1)C(=O)c1ccc2nc(N)c3c(c2c1)COC3` [Example 662, 4-amino-N-((5-(difluoromethyl)-2-pyridinyl)methyl)-N-((1R)-1-(1-methyl-1H-1,2,4-triazol-3-yl)ethyl)-1,3-dihydrofuro[3,4-c]quinoline-8-carboxamide], for which the IC50 in the assay with HCT116 MTAP null cells came to 0.029 µM; with HCT116 WT cells, 0.29 µM.
For `COCC(C)N(Cc1ccc(C(F)(F)F)nn1)C(=O)c1cc2c3c(c(N)nc2cc1Cl)COC3` (racemic) [Example 487, 4-amino-7-chloro-N-((2R)-1-methoxy-2-propanyl)-N-((6-(trifluoromethyl)-3-pyridazinyl)methyl)-1,3-dihydrofuro[3,4-c]quinoline-8-carboxamide and 4-amino-7-chloro-N-((2S)-1-methoxy-2-propanyl)-N-((6-(trifluoromethyl)-3-pyridazinyl)methyl)-1,3-dihydrofuro[3,4-c]quinoline-8-carboxamide], the values for the concentration for half-maximal inhibition (IC50) in the assay on HCT116 MTAP null cells and with HCT116 WT cells were 0.088 µM and 1.37 µM, respectively.
Regarding `Cn1ncc2c(N)nc3cc(F)c(C(=O)N(Cc4ccc(C(F)(F)F)cn4)CC(F)(F)F)cc3c21` [Example 800, 4-amino-7-fluoro-1-methyl-N-(2,2,2-trifluoroethyl)-N-((5-(trifluoromethyl)-2-pyridinyl)methyl)-1H-pyrazolo[4,3-c]quinoline-8-carboxamide], the IC50 amounted to 0.007 µM in the assay on HCT116 MTAP null cells and 0.245 µM in the assay with HCT116 WT cells.
As to `Nc1nc2ccc(C(=O)N(Cc3ccc(C(F)(F)F)cn3)C34CC(C3)C4)cc2c2c1COC2` [Example 471, 4-amino-N-(bicyclo[1.1.1]pentan-1-yl)-N-((5-(trifluoromethyl)-2-pyridinyl)methyl)-1,3-dihydrofuro[3,4-c]quinoline-8-carboxamide], the concentration for half-maximal inhibition (IC50) worked out at 0.043 µM with HCT116 MTAP null cells and 1.16 µM in the assay on HCT116 WT cells.
Take `C[C@@H](c1ccc(F)cn1)N(C)C(=O)c1cc2c(cc1F)nc(N)c1cnn(C)c12` (single isomer, unassigned) [Example 874]: the half-inhibitory concentration (IC50) amounted to 0.929 µM in the assay on HCT116 MTAP null cells and 36 µM with HCT116 WT cells.
Turning to `CC(C)N(C(=O)c1cc2c3c(c(N)nc2cc1F)COC3)[C@@H](C)c1ccc(C(F)(F)F)cn1` (single isomer, unassigned) [Example 841], the half-maximal inhibitory concentration (IC50) in the assay with HCT116 MTAP null cells was 0.613 µM; in the assay on HCT116 WT cells it was 11.7 µM.
For `C[C@@H](C1CC1)N(Cc1ccc(C(F)(F)F)nn1)C(=O)c1cc2c3c(c(N)nc2cc1F)COC3` [Example 815, 4-amino-N-((1S)-1-cyclopropylethyl)-7-fluoro-N-((6-(trifluoromethyl)-3-pyridazinyl)methyl)-1,3-dihydrofuro[3,4-c]quinoline-8-carboxamide], the concentration for half-maximal inhibition (IC50) in the assay with HCT116 MTAP null cells was 0.018 µM; in the assay with HCT116 WT cells it was 0.301 µM.
For `C[C@H]1OCc2c1c(N)nc1cnc(C(=O)N(Cc3ccc(C(F)(F)F)cn3)c3cnn(C)c3)cc21` (single isomer, unassigned) [Example 828], the IC50 in the assay on HCT116 MTAP null cells is 0.026 µM; with HCT116 WT cells, 0.294 µM.
The corresponding values for `CC[C@@H](c1cncnc1)N(Cc1ccc(S(F)(F)(F)(F)F)cc1)C(=O)c1cc2c(cn1)nc(N)c1cnn(C)c12` (single isomer, unassigned) [Example 872] are 0.075 µM and 4.5 µM.
As to `C[C@@H](c1ncccn1)N(Cc1ccc(C(F)(F)F)nn1)C(=O)c1ccc2nc(N)c3c(c2c1)COC3` [Example 440, 4-amino-N-((1S)-1-(2-pyrimidinyl)ethyl)-N-((6-(trifluoromethyl)-3-pyridazinyl)methyl)-1,3-dihydrofuro[3,4-c]quinoline-8-carboxamide], the IC50 was 0.461 µM in the assay with HCT116 MTAP null cells and greater than 10 µM with HCT116 WT cells.
Consider `Cn1ncc2c(N)nc3ccc(C(=O)N(Cc4ccc(C(F)(F)F)cn4)C4CC4)cc3c21` [Example 569, 4-amino-N-cyclopropyl-1-methyl-N-((5-(trifluoromethyl)-2-pyridinyl)methyl)-1H-pyrazolo[4,3-c]quinoline-8-carboxamide], for which the half-maximal inhibitory concentration (IC50) in the assay with HCT116 MTAP null cells is 0.031 µM; with HCT116 WT cells, 3.89 µM.
The corresponding values for `C[C@H](C1CC1)N(Cc1ccc(C(F)(F)F)nn1)C(=O)c1cc2c3c(c(N)nc2cc1F)COC3` [Example 814, 4-amino-N-((1R)-1-cyclopropylethyl)-7-fluoro-N-((6-(trifluoromethyl)-3-pyridazinyl)methyl)-1,3-dihydrofuro[3,4-c]quinoline-8-carboxamide] are 0.044 µM and 1.17 µM.
In the case of `CCOc1ccc(CN(CC2CC2)C(=O)c2cc3c(cc2F)nc(N)c2c3cnn2C)nn1` [Example 765, 4-amino-N-(cyclopropylmethyl)-N-((6-ethoxy-3-pyridazinyl)methyl)-7-fluoro-3-methyl-3H-pyrazolo[3,4-c]quinoline-8-carboxamide], the IC50 was 0.049 µM in the assay on HCT116 MTAP null cells and 1.98 µM in the assay with HCT116 WT cells.

Values taken from patent US20240101570A1 (AMGEN INC., priority 2020, published 2024).
